Measurements as given in ChEMBL document CHEMBL6134891, “Thienopyrimidinone Derivatives as a GluN2B/C/D Biased, Positive Allosteric Modulator of the N-Methyl-d-Aspartate Receptor” (J Med Chem, 2025).
pEC50: −log10 of the molar value. Converted amounts (≈) assume the structure as drawn.

biological target: T1, Glutamate receptor ionotropic, NMDA 2D (Rattus norvegicus, UniProt P35439+Q62645); assay: not given; details: not given
T1 sequence (Q62645 whole entry, one chain of several): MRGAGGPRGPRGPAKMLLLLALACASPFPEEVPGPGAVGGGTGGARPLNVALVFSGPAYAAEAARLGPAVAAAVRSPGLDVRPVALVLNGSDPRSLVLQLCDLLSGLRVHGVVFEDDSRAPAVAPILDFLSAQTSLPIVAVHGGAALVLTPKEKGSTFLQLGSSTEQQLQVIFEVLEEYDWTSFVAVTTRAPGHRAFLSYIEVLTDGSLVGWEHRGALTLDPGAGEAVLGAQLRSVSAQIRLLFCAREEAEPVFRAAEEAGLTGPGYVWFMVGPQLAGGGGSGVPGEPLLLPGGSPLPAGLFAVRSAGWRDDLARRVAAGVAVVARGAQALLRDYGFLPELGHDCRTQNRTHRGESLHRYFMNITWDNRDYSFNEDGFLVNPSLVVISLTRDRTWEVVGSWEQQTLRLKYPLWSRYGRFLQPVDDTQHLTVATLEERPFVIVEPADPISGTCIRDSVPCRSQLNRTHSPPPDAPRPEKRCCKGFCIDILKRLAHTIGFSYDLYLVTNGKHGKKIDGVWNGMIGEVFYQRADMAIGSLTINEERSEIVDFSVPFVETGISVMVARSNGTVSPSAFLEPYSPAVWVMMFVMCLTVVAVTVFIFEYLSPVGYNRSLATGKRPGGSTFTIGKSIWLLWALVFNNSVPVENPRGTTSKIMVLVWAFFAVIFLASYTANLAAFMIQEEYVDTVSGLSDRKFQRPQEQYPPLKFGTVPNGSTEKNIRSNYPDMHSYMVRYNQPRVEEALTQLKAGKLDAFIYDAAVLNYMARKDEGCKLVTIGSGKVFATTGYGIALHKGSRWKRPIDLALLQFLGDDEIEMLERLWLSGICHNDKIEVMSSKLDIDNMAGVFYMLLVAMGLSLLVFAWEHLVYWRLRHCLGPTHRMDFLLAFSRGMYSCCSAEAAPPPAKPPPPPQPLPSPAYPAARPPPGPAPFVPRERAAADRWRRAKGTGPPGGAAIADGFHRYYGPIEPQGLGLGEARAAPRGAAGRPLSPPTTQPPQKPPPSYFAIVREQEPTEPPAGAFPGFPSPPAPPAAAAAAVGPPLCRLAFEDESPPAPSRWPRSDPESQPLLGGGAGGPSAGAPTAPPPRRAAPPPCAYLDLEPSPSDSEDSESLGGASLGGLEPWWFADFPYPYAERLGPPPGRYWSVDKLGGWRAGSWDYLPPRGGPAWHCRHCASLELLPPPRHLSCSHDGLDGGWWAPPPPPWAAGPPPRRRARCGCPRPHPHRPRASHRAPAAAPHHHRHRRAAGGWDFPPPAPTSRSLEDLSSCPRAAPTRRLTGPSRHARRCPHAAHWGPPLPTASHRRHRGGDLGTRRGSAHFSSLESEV

| Compound | pEC50 |
| --- | --- |
| Cc1sc2ncn(CC(=O)N3CC(C)(F)C3)c(=O)c2c1-c1cccc(OC(F)(F)F)c1 | 5.38 |
| Cc1sc2ncn(CC(=O)N3CC(C)(F)C3)c(=O)c2c1-c1ccc2ccccc2c1 | 5.20 |
| Cc1sc2ncn(CC(=O)N3CC(C)(F)C3)c(=O)c2c1-c1ccc(F)c(Br)c1 | 5.96 |
| CC1(F)CN(C(=O)Cn2cnc3scc(-c4ccc(F)c(Br)c4)c3c2=O)C1 | 5.68 |
| CCc1sc2ncn(CC(=O)N3CC(C)(F)C3)c(=O)c2c1-c1ccc(F)c(Br)c1 | 5.33 |
| Cc1sc2ncn(CC(=O)N3CC(C)(F)C3)c(=O)c2c1-c1ccc(F)c(C(F)(F)F)c1 | 5.62 |
| Cc1sc2ncn(CC(=O)N3CC[C@H](F)C3)c(=O)c2c1-c1cccc(Br)c1 | 4.60 |
| Cc1sc2ncn(CC(=O)N3CC(C)(F)C3)c(=O)c2c1-c1ccc(Cl)c(Cl)c1 | 6.00 |
| Cc1sc2ncn(CC(=O)N3CC(C)(F)C3)c(=O)c2c1-c1ccc(F)c(C#N)c1 | 5.32 |
| Cc1sc2ncn(CC(=O)N3CC(C)(F)C3)c(=O)c2c1-c1ccc(Cl)c(F)c1 | 5.25 |
| Cc1sc2ncn(CC(=O)N3CC(C)(F)C3)c(=O)c2c1-c1cccc(Cl)c1F | 5.16 |

biological target: T2, Glutamate receptor ionotropic, NMDA 2B (Homo sapiens, UniProt Q05586+Q13224); assay: Positive allosteric modulation of human GluN2B receptor expressed in HEK293 cells by Whole-cell patch-clamp method; details: not given

| Compound | pEC50 |
| --- | --- |
| C[C@@H](O)[C@@H](C(N)=O)N1C[C@@]2(CCCN2C(=O)OC(C)(C)C)C1=O [ZELQUISTINEL] | 5.01 |

biological target: T2, Glutamate receptor ionotropic, NMDA 2B; assay: Positive allosteric modulation of GluN2B receptor (unknown origin) expressed in Doxycycline-inducible HEK293 cells by calcium influx assay; details: not given

| Compound | pEC50 |
| --- | --- |
| CCCc1nc2[nH]c(C)c(NS(=O)(=O)c3ccc(C4CCCCC4)cc3)c(=O)n2n1 | 5.52 |

biological target: T3, Glutamate receptor ionotropic, NMDA 2C (Homo sapiens, UniProt Q05586+Q14957); assay: Positive allosteric modulation of human GluN2C receptor expressed in HEK293 cells by Whole-cell patch-clamp method; details: not given

| Compound | pEC50 |
| --- | --- |
| C[C@@H](O)[C@@H](C(N)=O)N1C[C@@]2(CCCN2C(=O)OC(C)(C)C)C1=O [ZELQUISTINEL] | 5.01 |

biological target: T4, Glutamate receptor ionotropic, NMDA 2B (Rattus norvegicus, UniProt P35439+Q00960); assay: not given; details: not given
T4 sequence (Q00960 whole entry, one chain of several): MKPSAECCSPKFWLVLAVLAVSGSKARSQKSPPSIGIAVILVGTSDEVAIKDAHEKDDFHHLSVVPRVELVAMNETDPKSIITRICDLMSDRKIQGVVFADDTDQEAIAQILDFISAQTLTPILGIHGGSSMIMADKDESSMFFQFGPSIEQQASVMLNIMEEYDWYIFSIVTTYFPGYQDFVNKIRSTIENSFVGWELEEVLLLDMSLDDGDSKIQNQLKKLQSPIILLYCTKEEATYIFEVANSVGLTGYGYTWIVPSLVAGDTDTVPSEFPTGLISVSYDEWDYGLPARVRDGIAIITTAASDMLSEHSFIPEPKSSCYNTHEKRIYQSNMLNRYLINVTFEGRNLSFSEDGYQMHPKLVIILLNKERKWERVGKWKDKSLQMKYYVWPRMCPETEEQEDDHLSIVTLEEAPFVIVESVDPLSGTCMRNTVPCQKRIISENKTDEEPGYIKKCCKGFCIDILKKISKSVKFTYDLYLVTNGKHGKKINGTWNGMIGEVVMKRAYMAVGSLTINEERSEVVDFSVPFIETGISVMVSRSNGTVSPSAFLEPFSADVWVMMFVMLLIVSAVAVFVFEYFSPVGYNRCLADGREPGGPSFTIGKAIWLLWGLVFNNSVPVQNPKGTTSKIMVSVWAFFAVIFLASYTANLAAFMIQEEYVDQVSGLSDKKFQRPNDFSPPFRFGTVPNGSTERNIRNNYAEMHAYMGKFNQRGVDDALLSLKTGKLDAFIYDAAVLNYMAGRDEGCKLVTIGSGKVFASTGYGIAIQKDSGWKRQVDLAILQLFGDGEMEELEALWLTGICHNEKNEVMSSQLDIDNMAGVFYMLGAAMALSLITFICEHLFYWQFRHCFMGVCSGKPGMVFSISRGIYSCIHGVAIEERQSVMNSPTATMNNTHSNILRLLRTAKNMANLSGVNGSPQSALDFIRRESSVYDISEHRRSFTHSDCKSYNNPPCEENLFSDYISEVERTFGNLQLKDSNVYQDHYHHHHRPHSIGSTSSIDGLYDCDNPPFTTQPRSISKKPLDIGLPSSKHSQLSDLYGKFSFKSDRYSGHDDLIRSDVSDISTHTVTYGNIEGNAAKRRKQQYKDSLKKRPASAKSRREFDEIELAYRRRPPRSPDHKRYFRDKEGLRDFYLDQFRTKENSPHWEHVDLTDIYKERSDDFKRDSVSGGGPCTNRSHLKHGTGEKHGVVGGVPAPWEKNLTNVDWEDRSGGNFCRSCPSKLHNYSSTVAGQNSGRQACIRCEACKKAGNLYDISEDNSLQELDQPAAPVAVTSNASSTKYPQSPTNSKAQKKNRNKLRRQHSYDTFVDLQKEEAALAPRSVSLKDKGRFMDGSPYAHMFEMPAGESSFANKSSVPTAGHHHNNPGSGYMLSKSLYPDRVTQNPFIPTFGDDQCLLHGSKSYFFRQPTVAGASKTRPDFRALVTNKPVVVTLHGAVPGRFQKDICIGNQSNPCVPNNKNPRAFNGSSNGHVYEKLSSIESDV

| Compound | pEC50 |
| --- | --- |
| Cc1sc2ncn(CC(=O)N3CCCC3)c(=O)c2c1-c1cccc(Br)c1 | 5.00 |

biological target: T5, Glutamate receptor ionotropic, NMDA 2C (Rattus norvegicus, UniProt P35439+Q00961); assay: not given; details: not given
T5 sequence (Q00961 whole entry, one chain of several): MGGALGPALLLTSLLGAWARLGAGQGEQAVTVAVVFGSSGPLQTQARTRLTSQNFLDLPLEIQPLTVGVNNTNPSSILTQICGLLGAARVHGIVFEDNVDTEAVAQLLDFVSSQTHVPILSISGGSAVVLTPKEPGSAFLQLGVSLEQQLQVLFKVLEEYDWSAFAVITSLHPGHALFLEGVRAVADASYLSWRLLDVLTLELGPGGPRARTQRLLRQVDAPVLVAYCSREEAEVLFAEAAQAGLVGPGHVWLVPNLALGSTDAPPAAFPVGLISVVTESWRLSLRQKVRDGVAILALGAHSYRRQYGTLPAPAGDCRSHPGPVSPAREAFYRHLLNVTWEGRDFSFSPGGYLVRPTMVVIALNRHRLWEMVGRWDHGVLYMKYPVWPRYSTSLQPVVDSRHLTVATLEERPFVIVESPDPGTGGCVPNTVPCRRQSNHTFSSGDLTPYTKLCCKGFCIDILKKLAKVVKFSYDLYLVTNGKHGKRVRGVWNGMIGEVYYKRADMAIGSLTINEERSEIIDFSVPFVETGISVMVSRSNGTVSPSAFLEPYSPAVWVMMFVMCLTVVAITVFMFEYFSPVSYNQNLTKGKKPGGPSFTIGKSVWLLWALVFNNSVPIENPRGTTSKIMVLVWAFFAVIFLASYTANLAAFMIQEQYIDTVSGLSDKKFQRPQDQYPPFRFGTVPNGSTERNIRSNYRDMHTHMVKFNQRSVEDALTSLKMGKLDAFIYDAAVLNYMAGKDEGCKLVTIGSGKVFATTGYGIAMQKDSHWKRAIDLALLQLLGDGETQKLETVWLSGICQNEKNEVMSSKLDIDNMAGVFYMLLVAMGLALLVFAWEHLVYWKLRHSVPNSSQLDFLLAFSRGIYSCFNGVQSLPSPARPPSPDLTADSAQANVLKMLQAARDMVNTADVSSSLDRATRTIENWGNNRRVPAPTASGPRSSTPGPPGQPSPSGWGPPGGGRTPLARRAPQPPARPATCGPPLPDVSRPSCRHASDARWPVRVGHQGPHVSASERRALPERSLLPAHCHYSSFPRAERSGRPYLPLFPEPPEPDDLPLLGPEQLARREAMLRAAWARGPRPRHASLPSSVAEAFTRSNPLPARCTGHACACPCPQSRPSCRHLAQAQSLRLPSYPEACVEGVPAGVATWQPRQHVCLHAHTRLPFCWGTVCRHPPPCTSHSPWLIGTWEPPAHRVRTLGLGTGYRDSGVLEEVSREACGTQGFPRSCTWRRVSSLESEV

| Compound | pEC50 |
| --- | --- |
| Cc1sc2ncn(CC(=O)N3CCCC3)c(=O)c2c1-c1cccc(Br)c1 | 4.92 |

biological target: Glutamate NMDA receptor; assay: Positive allosteric modulation of NMDAR in rat hippocampal neurons by Whole-cell and excised-patch recording method; details: hippocampal neuron

| Compound | pEC50 |
| --- | --- |
| CC(C)[C@@H](O)CC[C@@H](C)[C@H]1CC[C@H]2[C@@H]3CC=C4C[C@@H](O)CC[C@]4(C)[C@H]3CC[C@]12C | 5.92 |

tested on: not listed separately; assay: Efflux ratio of apparent permeability in MDCK-MDR1 cells; details: dog

| Compound | efflux ratio |
| --- | --- |
| Cc1sc2ncn(CC(=O)N3CC(C)(F)C3)c(=O)c2c1-c1ccc(F)c(Br)c1 | 1.98 |
| CC1(F)CN(C(=O)Cn2cnc3scc(-c4ccc(F)c(Br)c4)c3c2=O)C1 | 2.04 |

tested on: not listed separately; assay: Stability in mouse plasma assessed as half life; details: not given

| Compound | half-life [min] |
| --- | --- |
| Cc1sc2ncn(CC(=O)N3CCCC3)c(=O)c2c1-c1cccc(Br)c1 | > 240 |
| Cc1sc2ncn(CC(=O)N3CC(C)(F)C3)c(=O)c2c1-c1ccc(F)c(Br)c1 | > 240 |
| CC1(F)CN(C(=O)Cn2cnc3scc(-c4ccc(F)c(Br)c4)c3c2=O)C1 | > 240 |

biological target: T6, Glutamate receptor ionotropic, NMDA 2A (Homo sapiens, UniProt Q05586+Q12879); assay: Positive allosteric modulation of GluN2A receptor (unknown origin); details: not given

| Compound | pEC50 |
| --- | --- |
| C[C@H](CC[C@](C)(O)C(F)(F)F)[C@H]1CC[C@H]2[C@@H]3CC=C4C[C@@](C)(O)CC[C@]4(C)[C@H]3CC[C@]12C [DALZANEMDOR] | 7.10 |

biological target: T3, Glutamate receptor ionotropic, NMDA 2C; assay: Positive allosteric modulation of GluN2C receptor (unknown origin) expressed in Doxycycline-inducible HEK293 cells by calcium influx assay; details: not given

| Compound | pEC50 |
| --- | --- |
| CCCc1nc2[nH]c(C)c(NS(=O)(=O)c3ccc(C4CCCCC4)cc3)c(=O)n2n1 | 5.52 |

biological target: T1, Glutamate receptor ionotropic, NMDA 2D; assay: not given; details: not given; remark: another data set of the same source

| Compound | pEC50 |
| --- | --- |
| Cc1sc2ncn(CC(=O)N3CCCC3)c(=O)c2c1-c1cccc(Br)c1 | 4.74 |

tested on: not listed separately; assay: Stability in rat plasma assessed as half life; details: not given

| Compound | half-life [min] |
| --- | --- |
| Cc1sc2ncn(CC(=O)N3CCCC3)c(=O)c2c1-c1cccc(Br)c1 | > 240 |
| Cc1sc2ncn(CC(=O)N3CC(C)(F)C3)c(=O)c2c1-c1ccc(F)c(Br)c1 | > 240 |
| CC1(F)CN(C(=O)Cn2cnc3scc(-c4ccc(F)c(Br)c4)c3c2=O)C1 | > 240 |

biological target: T5, Glutamate receptor ionotropic, NMDA 2C; assay: not given; details: not given; remark: another data set of the same source

| Compound | pEC50 |
| --- | --- |
| Cc1sc2ncn(CC(=O)N3CC(C)(F)C3)c(=O)c2c1-c1cccc(OC(F)(F)F)c1 | 5.59 |
| Cc1sc2ncn(CC(=O)N3CC(C)(F)C3)c(=O)c2c1-c1ccc2ccccc2c1 | 5.52 |
| Cc1sc2ncn(CC(=O)N3CC(C)C3)c(=O)c2c1-c1cccc(Br)c1 | 4.92 |
| Cc1sc2ncn(CC(=O)N3CC(C)(F)C3)c(=O)c2c1-c1ccc(F)c(Br)c1 | 6.20 |
| CC1(F)CN(C(=O)Cn2cnc3scc(-c4ccc(F)c(Br)c4)c3c2=O)C1 | 6.06 |
| CCc1sc2ncn(CC(=O)N3CC(C)(F)C3)c(=O)c2c1-c1ccc(F)c(Br)c1 | 5.50 |
| Cc1sc2ncn(CC(=O)N3CC(C)(F)C3)c(=O)c2c1-c1ccc(F)c(C(F)(F)F)c1 | 5.80 |
| Cc1sc2ncn(CC(=O)N3CC[C@H](F)C3)c(=O)c2c1-c1cccc(Br)c1 | 4.92 |
| Cc1sc2ncn(CC(=O)N3CC(C)(F)C3)c(=O)c2c1-c1ccc(Cl)c(Cl)c1 | 6.07 |
| Cc1sc2ncn(CC(=O)N3CC(C)(F)C3)c(=O)c2c1-c1ccc(F)c(C#N)c1 | 5.38 |
| Cc1sc2ncn(CC(=O)N3CCC3)c(=O)c2c1-c1cccc(Br)c1 | 4.70 |
| Cc1sc2ncn(CC(=O)N3CC(C)(F)C3)c(=O)c2c1-c1ccc(Cl)c(F)c1 | 5.35 |
| Cc1sc2ncn(CC(=O)N3CC(C)(F)C3)c(=O)c2c1-c1cccc(Cl)c1F | 5.28 |

tested on: not listed separately; assay: Kinetic solubility of compound in PBS at pH 7.3 by nephelometry; details: not given

| Compound | solubility kinetic [µM] |
| --- | --- |
| Cc1sc2ncn(CC(=O)N3CCCC3)c(=O)c2c1-c1cccc(Br)c1 | > 100 |
| Cc1sc2ncn(CC(=O)N3CC(C)(F)C3)c(=O)c2c1-c1ccc(F)c(Br)c1 | 34 (≈ 15.9 µg/mL) |
| CC1(F)CN(C(=O)Cn2cnc3scc(-c4ccc(F)c(Br)c4)c3c2=O)C1 | 33 (≈ 15 µg/mL) |

tested on: not listed separately; assay: Apparent permeability in MDCK-MDR1 cells; details: dog

| Compound | Papp [×10⁻⁶ cm/s] |
| --- | --- |
| Cc1sc2ncn(CC(=O)N3CC(C)(F)C3)c(=O)c2c1-c1ccc(F)c(Br)c1 | 19.6 |
| CC1(F)CN(C(=O)Cn2cnc3scc(-c4ccc(F)c(Br)c4)c3c2=O)C1 | 16.6 |

tested on: not listed separately; assay: in vitro; details: human, liver microsomes
Description: Intrinsic clearance in human liver microsomes at 3 uM preincubated for 5 mins followed by NADPH addition measured up to 30 mins by LC-MS/MS analysis

| Compound | microsomal CLint at 0.5 h, 3 µM [µL/min/mg] |
| --- | --- |
| Cc1sc2ncn(CC(=O)N3CCCC3)c(=O)c2c1-c1cccc(Br)c1 | 50 |
| Cc1sc2ncn(CC(=O)N3CC(C)(F)C3)c(=O)c2c1-c1ccc(F)c(Br)c1 | 29 |
| CC1(F)CN(C(=O)Cn2cnc3scc(-c4ccc(F)c(Br)c4)c3c2=O)C1 | 14 |

biological target: T7, Glutamate receptor ionotropic, NMDA 2D (Homo sapiens, UniProt O15399+Q05586); assay: Positive allosteric modulation of GluN2D receptor (unknown origin); details: not given

| Compound | pEC50 |
| --- | --- |
| C[C@H](CC[C@](C)(O)C(F)(F)F)[C@H]1CC[C@H]2[C@@H]3CC=C4C[C@@](C)(O)CC[C@]4(C)[C@H]3CC[C@]12C [DALZANEMDOR] | 7.10 |

biological target: T3, Glutamate receptor ionotropic, NMDA 2C; assay: Positive allosteric modulation of GluN2C receptor (unknown origin); details: not given

| Compound | pEC50 |
| --- | --- |
| C[C@H](CC[C@](C)(O)C(F)(F)F)[C@H]1CC[C@H]2[C@@H]3CC=C4C[C@@](C)(O)CC[C@]4(C)[C@H]3CC[C@]12C [DALZANEMDOR] | 7.10 |

biological target: T6, Glutamate receptor ionotropic, NMDA 2A; assay: Positive allosteric modulation of GluN2A receptor (unknown origin) expressed in Doxycycline-inducible HEK293 cells by calcium influx assay; details: not given

| Compound | pEC50 |
| --- | --- |
| CCCc1nc2[nH]c(C)c(NS(=O)(=O)c3ccc(C4CCCCC4)cc3)c(=O)n2n1 | 5.52 |

tested on: not listed separately; assay: Stability in human plasma assessed as half life; details: not given

| Compound | half-life [min] |
| --- | --- |
| Cc1sc2ncn(CC(=O)N3CCCC3)c(=O)c2c1-c1cccc(Br)c1 | > 240 |
| Cc1sc2ncn(CC(=O)N3CC(C)(F)C3)c(=O)c2c1-c1ccc(F)c(Br)c1 | > 240 |
| CC1(F)CN(C(=O)Cn2cnc3scc(-c4ccc(F)c(Br)c4)c3c2=O)C1 | > 240 |

biological target: T4, Glutamate receptor ionotropic, NMDA 2B; assay: not given; details: not given; remark: another data set of the same source

| Compound | pEC50 |
| --- | --- |
| Cc1sc2ncn(CC(=O)N3CC[C@@H](F)C3)c(=O)c2c1-c1cccc(Br)c1 | 4.85 |
| Cc1sc2ncn(CC(=O)N3CC(C)(F)C3)c(=O)c2c1-c1ccc2ccn(C)c2c1 | 5.00 |
| Cc1sc2ncn(CC(=O)N3CC(C)(F)C3)c(=O)c2c1-c1cccc(OC(F)(F)F)c1 | 5.96 |
| Cc1sc2ncn(CC(=O)N3CC(C)(F)C3)c(=O)c2c1-c1ccc2ccccc2c1 | 5.70 |
| Cc1sc2ncn(CC(=O)N3CC(C)C3)c(=O)c2c1-c1cccc(Br)c1 | 5.12 |
| Cc1sc2ncn(CC(=O)N3CCC[C@@H]3C)c(=O)c2c1-c1cccc(Br)c1 | 4.68 |
| Cc1sc2ncn(CC(=O)N3CC(C)(F)C3)c(=O)c2c1-c1ccc(F)c(Br)c1 | 6.48 |
| CC1(F)CN(C(=O)Cn2cnc3scc(-c4ccc(F)c(Br)c4)c3c2=O)C1 | 6.13 |
| CCc1sc2ncn(CC(=O)N3CC(C)(F)C3)c(=O)c2c1-c1ccc(F)c(Br)c1 | 5.74 |
| Cc1sc2ncn(CC(=O)N3CC(C)(F)C3)c(=O)c2c1-c1ccc(F)c(C(F)(F)F)c1 | 6.22 |
| Cc1sc2ncn(CC(=O)N3CC[C@H](F)C3)c(=O)c2c1-c1cccc(Br)c1 | 4.82 |
| Cc1sc2ncn(CC(=O)N3CC(C)(F)C3)c(=O)c2c1-c1ccc(Cl)c(Cl)c1 | 6.39 |
| Cc1sc2ncn(CC(=O)N3CC(C)(F)C3)c(=O)c2c1-c1ccc(F)c(C#N)c1 | 5.89 |
| Cc1sc2ncn(CC(=O)N3CCC3)c(=O)c2c1-c1cccc(Br)c1 | 4.64 |
| Cc1sc2ncn(CC(=O)N3CC(C)(F)C3)c(=O)c2c1-c1ccc(Cl)c(F)c1 | 5.77 |
| Cc1sc2ncn(CC(=O)N3CC(C)(F)C3)c(=O)c2c1-c1cccc(Cl)c1F | 5.70 |

biological target: T7, Glutamate receptor ionotropic, NMDA 2D; assay: Positive allosteric modulation of GluN2D receptor (unknown origin) expressed in Doxycycline-inducible HEK293 cells by calcium influx assay; details: not given

| Compound | pEC50 |
| --- | --- |
| CCCc1nc2[nH]c(C)c(NS(=O)(=O)c3ccc(C4CCCCC4)cc3)c(=O)n2n1 | 5.52 |
